# Experimental data reported in patent US11672795B2, “Compositions and methods for treating pulmonary vascular disease” (UNIVERSITY OF PITTSBURGH-OF THE COMMONWEALTH SYSTEM OF …, priority 2016, dated 2023).
# Tests used:
# PAECs [1] = assay: Apoptosis of PAECs on soft or stiff matrix (caspase 3/7 activity, cleaved caspase-3 staining); assay type: cell-based, human
# Description: A-C) PAECs were plated on soft (1 kPa) or stiff (50 kPa) matrix and exposed to indicated treatments. Apoptosis (A-C) and proliferation (B-C) were quantified 48 h after plating. […] In all panels, mean expression in control groups (soft matrix) was assigned a fold change of 1, to which relevant samples were compared. Data are expressed as mean±SD (*P<0.05; ** P<0.01, ***P<0.001).
# (§1) After various indicated treatments, cultured cells were fixed with PBS/PFA 4% for 10 min and permeabilized with PBS/Triton 100×0.1% for 10 min. The cells were then incubated with anti-PCNA (#4912; 1/100; Invitrogen), anti-Ki67 (ab15580; 1/200; Abcam), and/or anti-cleaved caspase-3 (1/200; Cell Signaling) at room temperature for 2 hours. Secondary antibodies coupled with Alexa-594 and/or Alexa-488 (Thermo Scientific) were used at 1/500. Nuclei were counterstained with DAPI (Sigma).
# Caspase 3/7 activity was quantified using the Caspase-Glo 3/7 Assay (Promega), according to manufacturer's instructions. Briefly, cells were plated on hydrogel of different stiffness and treated as described. Twenty four hours after plating, cells were cultured in the presence or absence of serum for twenty-four hours. Cells were then lysed and 10 μg of total protein were incubated for 1 h with the caspase substrates, and luminescence was quantified by plate reader (SynergyHTX multi-mode reader, Biotek).
# PAAFs [2] = assay: PAAF-dependent ECM remodelling on cytokine stimulation (RT-qPCR, picrosirius red); assay type: cell-based; details: for TGF-b-induced ECM related genes expression / fibroblast activation marker (a-SMA) expression: PAAFs, RT-qPCR; for fibroblast activation marker (a-SMA) expression: TGF-b; for PAAFs dependent ECM remodelling: stimulation by pro-inflammatory cytokines (EDN1, IL6 or TGF-b)
# Excerpt: (§2) A-C) Pharmacological inhibition of GLS1 by either BPTES, C968 or CB839 blunted metabolic activation of PAAFs cultivated on stiff matrix as reflected by decreased glutaminolysis (A), glycolysis (B) and aspartate production (C). D-E) Pharmacological inhibition of GLS1 by either BPTES, C968 or CB839 decreased PAAFs dependent ECM remodelling upon stimulation by pro-inflammatory cytokines (EDN1, IL6 or TGF-b). […] G-H) Fibrilar collagen visualization (G) and quantification (H) by picrosirius red staining confirmed a decreased of ECM remodelling by activated PAAF (TGF-b) in presence of GLS1 inhibitors. I-M) PAAFs were cultivated upon indicated treatments. Cells were removed and pulmonary arterial endothelial cells (PAECs) were cultivated on the matrix synthesized by the PAAF. […] Data are expressed as mean±SEM (*P<0.05, § P<0.01, #P<0.001) of at least 3 independent experiments performed in triplicate. Paired samples were compared by 2-tailed Student's t test, while 1-way ANOVA and post-hoc Tukey's tests were used for group comparisons.
# Messenger RNAs were reverse transcribed using the Multiscript RT kit (Life Technologies) to generate cDNA. cDNA was amplified via fluorescently labeled Taqman primer sets using an Applied Biosystems 7900HT Fast Real Time PCR device. To specifically determine the relative expression of the two GLS1 isoforms KGA and GAC, TaqMan gene expression assays Hs01014019_m1 and Hs01022166_m1 were used respectively. Fold-change of RNA species was calculated using the formula (2^−ΔΔCt), normalized to RPLP0 expression.
# Picrosirius Red stain was achieved through the use of 5 μm paraffin sections stained with 0.1% Picrosirius Red (Direct Red80, Sigma-Aldrich) and counterstained with Weigert's hematoxylin to reveal fibrillar collagen. The sections were then serially imaged using with an analyzer and polarizer oriented parallel and orthogonal to each other. Microscope conditions (lamp brightness, condenser opening, objective, zoom, exposure time, and gain parameters) were maintained throughout the imaging of all samples. A minimal threshold was set on appropriate control sections for each experiment in which only the light passing through the orthogonally-oriented polarizers representing fibrous structures (i.e., excluding residual light from the black background) was included. The threshold was maintained for all images across all conditions within each experiment. The area of the transferred regions that was covered by the thresholded light was calculated and at least 10 sections/vessel per condition were averaged together (NIH ImageJ software). Targeted LC-MS/MS
# PAECs [3] = assay: Proliferation of PAECs (cell count, BrdU pulse, PCNA staining); assay type: cell-based, human; details: PAECs, stiff matrix, 48 h after plating
# Description: A-C) PAECs were plated on soft (1 kPa) or stiff (50 kPa) matrix and exposed to indicated treatments. Apoptosis (A-C) and proliferation (B-C) were quantified 48 h after plating. […] Apoptosis (as reflected by cleaved caspase-3 staining, CC-3+) was increased by serum starvation in both soft and stiff conditions but was not affected by GLS1 inhibition. In all panels, mean expression in control groups (soft matrix) was assigned a fold change of 1, to which relevant samples were compared. Data are expressed as mean±SD (*P<0.05; ** P<0.01, ***P<0.001).
# as §1
# After specified pre-treatment or transfection protocols as indicated, PAECs or PASMCs were plated in triplicate in 6 well plates at 30 000 cells per well. After overnight incubation for cells to adhere, 6 wells were counted to determine initial count at time of treatments (glutamate, aspartate, BPTES, DON or C968). After 2 days, 4 days or 6 days, the contents of the wells were trypsinized and counted, and proliferation rate was calculated.
# Exponentially growing cells were plated in the indicated matrix for 48 hours.
# PAAFs [4] = assay: Metabolic activation of PAAFs cultivated on stiff matrix; assay type: cell-based
# Excerpt: as §2
smiles,measurement,setting,value
"CN(C)c1ccc(C2Nc3ccc4ccccc4c3C3=C2C(=O)CC(C)(C)C3)cc1Br (centres unmarked) [C968, 5-(3-Bromo-4-(dimethylamino)phenyl)-2,2-dimethyl-2,3,5,6-tetrahydrobenzo[a]phenanthridin-4(1H)-one]","apoptosis (cleaved caspase-3 staining, CC-3+)","PAECs [1]; serum starvation, soft and stiff conditions",not affected
same,caspase 3/7 activity,"PAECs [1]; soft (1 kPa) or stiff (50 kPa) matrix, 24 h after serum depletion, vs vehicle control",No significant changes
same,TGF-b-induced ECM related genes expression,PAAFs [2],decreased
same,fibroblast activation marker (a-SMA) expression,PAAFs [2],decreased
same,PAAFs dependent ECM remodelling,PAAFs [2],decreased
same,proliferation in stiff matrix (PCNA+),PAECs [3],decreased
same,aspartate production,PAAFs [4],decreased
same,glutaminolysis,PAAFs [4],decreased
same,glycolysis,PAAFs [4],decreased
same,metabolic activation of PAAFs,PAAFs [4],blunted
O=C(Cc1cccc(OC(F)(F)F)c1)Nc1ccc(CCCCc2nnc(NC(=O)Cc3ccccn3)s2)nn1 [CB839],TGF-b-induced ECM related genes expression,PAAFs [2],decreased
same,fibroblast activation marker (a-SMA) expression,PAAFs [2],decreased
same,PAAFs dependent ECM remodelling,PAAFs [2],decreased
same,aspartate production,PAAFs [4],decreased
same,glutaminolysis,PAAFs [4],decreased
same,glycolysis,PAAFs [4],decreased
same,metabolic activation of PAAFs,PAAFs [4],blunted
